Assays:
Settings in all cases: 72 h
Vero E6 [1] = assay: drug sensitivity score (DSS) for viability; higher = more toxic; extreme values may be limits of the assay
HepG2 [2] = assay: as above
Calu-3 [3] = assay: as above
Caco-2 [4] = assay: as above
U2OS [5] = assay: as above
Vero E6 [6] = assay: cell viability relative to DMSO; higher = less toxic
HepG2 [7] = assay: as above
Calu-3 [8] = assay: as above
Caco-2 [9] = assay: as above
U2OS [10] = assay: as above
Vero E6 [11] = assay: relative viability EC50 (midpoint between 100% and the lowest measured viability); higher = less toxic
HepG2 [12] = assay: as above
Calu-3 [13] = assay: as above
Caco-2 [14] = assay: as above
U2OS [15] = assay: as above

Structure (SMILES)	drug sensitivity score (Vero E6 [1])	drug sensitivity score (HepG2 [2])	drug sensitivity score (Calu-3 [3])	drug sensitivity score (Caco-2 [4])	drug sensitivity score (U2OS [5])	cell viability (Vero E6 [6]; 1 nM) [%]	cell viability (Vero E6 [6]; 10 nM) [%]	cell viability (Vero E6 [6]; 100 nM) [%]	cell viability (Vero E6 [6]; 1000 nM) [%]	cell viability (Vero E6 [6]; 10000 nM) [%]	cell viability (HepG2 [7]; 1 nM) [%]	cell viability (HepG2 [7]; 10 nM) [%]	cell viability (HepG2 [7]; 100 nM) [%]	cell viability (HepG2 [7]; 1000 nM) [%]	cell viability (HepG2 [7]; 10000 nM) [%]	cell viability (Calu-3 [8]; 1 nM) [%]	cell viability (Calu-3 [8]; 10 nM) [%]	cell viability (Calu-3 [8]; 100 nM) [%]	cell viability (Calu-3 [8]; 1000 nM) [%]	cell viability (Calu-3 [8]; 10000 nM) [%]	cell viability (Caco-2 [9]; 1 nM) [%]	cell viability (Caco-2 [9]; 10 nM) [%]	cell viability (Caco-2 [9]; 100 nM) [%]	cell viability (Caco-2 [9]; 1000 nM) [%]	cell viability (Caco-2 [9]; 10000 nM) [%]	cell viability (U2OS [10]; 1 nM) [%]	cell viability (U2OS [10]; 10 nM) [%]	cell viability (U2OS [10]; 100 nM) [%]	cell viability (U2OS [10]; 1000 nM) [%]	cell viability (U2OS [10]; 10000 nM) [%]	relative viability EC50 (Vero E6 [11]) [nM]	relative viability EC50 (HepG2 [12]) [nM]	relative viability EC50 (Calu-3 [13]) [nM]	relative viability EC50 (Caco-2 [14]) [nM]	relative viability EC50 (U2OS [15]) [nM]
CO[C@H]1/C=C\C=C(/C)C(=O)NC2=CC(=O)C(NCCN(C)C)=C(C[C@@H](C)C[C@H](OC)[C@H](O)[C@@H](C)/C=C(\C)[C@@H]1OC(N)=O)C2=O [alvespimycin]	12.8	36	16.4	13.9	26.6	93.4	98.4	94.9	37	10.1	106	57.9	1.3	1.4	-0.1	97.3	88.4	67.1	36	20	98.4	90.3	82.9	39.7	1.6	97.7	91.3	30.8	2.5	1	587	11.4	148	544	54.2
CN1CC[C@H](c2c(O)cc(O)c3c(=O)cc(-c4ccccc4Cl)oc23)[C@H](O)C1 [alvocidib]	17.8	22.1	14.5	14.7	18.1	102	102	95.2	5.5	3.4	100	106	59.3	9.5	7.2	89.9	98.4	80.4	36.8	37.4	104	99.3	93.3	25.5	30.2	98.7	101	95.4	3	3.4	290	110	138	242	280
CC[N+](CC)(CCNC(=O)C(=O)NCC[N+](CC)(CC)Cc1ccccc1Cl)Cc1ccccc1Cl [ambenonium]	0	0	0	0	0	96.4	95.5	97.9	93.1	95.3	98.6	105	96.6	100	105	103	99.8	103	97.6	141	94.7	96	93.6	93.9	92.5	97.7	96.3	100	94.9	100	> 10000	> 10000	> 10000	> 10000	> 10000
CCN1CCCC1CNC(=O)c1cc(S(=O)(=O)CC)c(N)cc1OC (stereo not given) [amisulpride]	0	0	0	0	0	98.6	106	99.4	98.5	98.8	104	104	94.6	99.3	102	96.4	103	99.2	104	103	98.8	88.6	96.7	97.1	96.1	103	99.9	102	98.5	103	> 10000	> 10000	> 10000	> 10000	> 10000
N#C[C@H](O[C@@H]1O[C@H](CO[C@@H]2O[C@H](CO)[C@@H](O)[C@H](O)[C@H]2O)[C@@H](O)[C@H](O)[C@H]1O)c1ccccc1 [amygdalin]	0	0	0	0	0	101	103	96	95.5	102	100	98.8	104	101	96.6	99.2	105	93.3	109	107	98.4	104	110	92.8	104	96.9	105	100	104	101	> 10000	> 10000	> 10000	> 10000	> 10000

Reference: the supplement of paper PMC13380429
